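Test compounds were applied to cells in 96-well plates for 48 hours at 5 doses. TGI: total growth inhibition.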
Columns and labels:
Test in all cases: NCI-60 cell line screen, 48 h
[1] = test system: CCRF-CEM leukemia
[2] = test system: HCC-2998 colon
[3] = test system: HOP-62 NSCLC
[4] = test system: LOX IMVI melanoma
[5] = test system: MCF7 breast
[6] = test system: MDA-MB-231 breast
[7] = test system: OVCAR-4 ovarian
[8] = test system: SF-295 CNS
[9] = test system: T-47D breast
[10] = test system: U251 CNS
[11] = test system: UACC-257 melanoma

CSC(=S)Nc1cccc(C)n1
TGI [1]: > 100 µM
TGI [2]: > 100 µM
TGI [3]: > 100 µM
TGI [4]: > 100 µM
TGI [5]: > 100 µM
TGI [6]: > 100 µM
TGI [7]: > 100 µM
TGI [8]: > 100 µM
TGI [9]: > 100 µM
TGI [10]: > 100 µM
TGI [11]: > 100 µM

CC1=NC(=Cc2ccccc2O)C(=O)N1n1c(-c2ccccc2)nc2ccccc2c1=O
TGI [1]: > 100 µM
TGI [2]: > 100 µM
TGI [3]: > 100 µM
TGI [4]: > 100 µM
TGI [5]: 74.2 µM
TGI [6]: > 100 µM
TGI [7]: > 100 µM
TGI [8]: > 100 µM
TGI [9]: > 100 µM
TGI [10]: > 100 µM
TGI [11]: > 100 µM

CCc1c(C)c(C#N)c(=S)n(C2OC(COC(C)=O)C(OC(C)=O)C(OC(C)=O)C2OC(C)=O)c1-c1ccccc1 (centres undefined)
TGI [1]: > 100 µM
TGI [2]: > 31.6 µM
TGI [3]: > 31.6 µM
TGI [4]: > 31.6 µM
TGI [5]: > 31.6 µM
TGI [6]: > 31.6 µM
TGI [7]: > 31.6 µM
TGI [8]: 27 µM
TGI [9]: > 31.6 µM
TGI [10]: 31 µM
TGI [11]: > 31.6 µM

Cc1ccc(-c2nc(N/N=C/C=C/c3ccccc3)c3ccccc3n2)cc1
TGI [1]: > 100 µM
TGI [2]: > 100 µM
TGI [3]: > 100 µM
TGI [4]: > 100 µM
TGI [5]: 75.9 µM
TGI [6]: 47.9 µM
TGI [7]: > 100 µM
TGI [8]: > 100 µM
TGI [9]: > 100 µM
TGI [10]: > 100 µM
TGI [11]: > 100 µM

COC(=O)[C@]1(NC(=O)c2ccccc2)C[C@H]1C=O
TGI [1]: 51.5 µM
TGI [2]: > 100 µM
TGI [3]: > 100 µM
TGI [4]: > 100 µM
TGI [5]: > 100 µM
TGI [6]: > 100 µM
TGI [7]: > 100 µM
TGI [8]: > 100 µM
TGI [9]: > 100 µM
TGI [10]: > 100 µM
TGI [11]: > 100 µM

N[C@H](C(=O)O)[C@@H]1CC(Br)=NO1
TGI [1]: > 100 µM
TGI [2]: > 100 µM
TGI [3]: > 100 µM
TGI [4]: > 100 µM
TGI [5]: > 100 µM
TGI [6]: > 100 µM
TGI [7]: > 100 µM
TGI [8]: > 100 µM
TGI [9]: > 100 µM
TGI [10]: > 100 µM
TGI [11]: > 100 µM

CC1=NN(c2nc(N)nc(/C(C#N)=C\c3csc([N+](=O)[O-])c3)n2)C(C)(C)C1
TGI [1]: > 100 µM
TGI [2]: > 100 µM
TGI [3]: 64.6 µM
TGI [4]: > 100 µM
TGI [5]: > 100 µM
TGI [6]: 64 µM
TGI [7]: 56.4 µM
TGI [8]: > 100 µM
TGI [9]: 56.9 µM
TGI [10]: 39.4 µM
TGI [11]: > 100 µM

Nc1ccc2c(c1)nc1n2C(c2c(F)cccc2F)SC1 (centres undefined)
TGI [1]: > 100 µM
TGI [2]: > 100 µM
TGI [3]: > 100 µM
TGI [4]: > 100 µM
TGI [5]: > 100 µM
TGI [6]: > 100 µM
TGI [7]: > 100 µM
TGI [8]: > 100 µM
TGI [9]: > 100 µM
TGI [10]: > 100 µM
TGI [11]: > 100 µM

N#Cc1c2c(c(N)oc1=O)C(c1ccccc1)CC(=O)N2 (centres undefined)
TGI [1]: > 100 µM
TGI [2]: > 100 µM
TGI [3]: > 100 µM
TGI [4]: > 100 µM
TGI [5]: > 100 µM
TGI [6]: > 100 µM
TGI [7]: > 100 µM
TGI [8]: > 100 µM
TGI [9]: > 100 µM
TGI [10]: > 100 µM
TGI [11]: > 100 µM

O=c1[nH]nc(Cc2ccccc2)n1C1CCCC1
TGI [1]: > 100 µM
TGI [2]: > 100 µM
TGI [3]: > 100 µM
TGI [4]: > 100 µM
TGI [5]: > 100 µM
TGI [6]: > 100 µM
TGI [7]: > 100 µM
TGI [8]: > 100 µM
TGI [9]: > 100 µM
TGI [10]: > 100 µM
TGI [11]: > 100 µM

CCCCCCCC1(N=[N+]=[N-])C(=O)Nc2ccccc2C1=O (centres undefined)
TGI [1]: 95.4 µM
TGI [2]: 39.9 µM
TGI [3]: 32 µM
TGI [4]: 26.9 µM
TGI [5]: 34.6 µM
TGI [6]: 41.3 µM
TGI [7]: 29.8 µM
TGI [8]: 36.2 µM
TGI [9]: 35 µM
TGI [10]: 28.8 µM
TGI [11]: 41.2 µM

O=[N+]([O-])c1ccc(C(=S)Nc2ccccc2)o1
TGI [1]: 11.4 µM
TGI [2]: 3.17 µM
TGI [3]: 9.08 µM
TGI [4]: 8.6 µM
TGI [5]: 5.57 µM
TGI [6]: 8.06 µM
TGI [7]: 6.47 µM
TGI [8]: 15.5 µM
TGI [9]: 95.1 µM
TGI [10]: 3.05 µM
TGI [11]: 8.82 µM

c1cc2nnc1SCCCSc1ccc(nn1)SCCCS2
TGI [1]: > 100 µM
TGI [2]: 99.5 µM
TGI [3]: > 93.1 µM
TGI [4]: > 48.4 µM
TGI [5]: > 100 µM
TGI [6]: > 100 µM
TGI [7]: > 100 µM
TGI [8]: > 100 µM
TGI [9]: > 100 µM
TGI [10]: > 86.9 µM
TGI [11]: > 71.6 µM

Cc1cn(CCCCC2=NCCCN2)c(=O)[nH]c1=O
TGI [1]: > 23 µM
TGI [2]: > 32.9 µM
TGI [3]: > 60.7 µM
TGI [4]: > 32.6 µM
TGI [5]: > 34.4 µM
TGI [6]: > 42 µM
TGI [7]: > 40.7 µM
TGI [8]: > 65.5 µM
TGI [9]: > 23.9 µM
TGI [10]: > 46.4 µM
TGI [11]: > 33.9 µM

COc1ccc(/C(Br)=C2\OC(=O)c3ccccc32)cc1
TGI [1]: > 10 µM
TGI [2]: > 10 µM
TGI [3]: > 10 µM
TGI [4]: > 10 µM
TGI [5]: > 10 µM
TGI [6]: > 10 µM
TGI [7]: > 10 µM
TGI [8]: > 10 µM
TGI [9]: > 10 µM
TGI [10]: > 10 µM
TGI [11]: > 10 µM

CC1CN=C(N(Cc2ccccc2)C(=O)Nc2ccc(Cl)c(Cl)c2)S1 (centres undefined)
TGI [1]: > 10 µM
TGI [2]: > 10 µM
TGI [3]: > 100 µM
TGI [4]: > 100 µM
TGI [5]: > 100 µM
TGI [6]: 86.6 µM
TGI [7]: > 100 µM
TGI [8]: > 10 µM
TGI [9]: > 100 µM
TGI [10]: > 100 µM
TGI [11]: > 100 µM

Oc1[nH]c2ccccc2c1N=NC(=S)Nc1ccccc1Cl
TGI [1]: 49.9 µM
TGI [2]: > 100 µM
TGI [3]: 37.9 µM
TGI [4]: 27.4 µM
TGI [5]: 33.4 µM
TGI [6]: 32 µM
TGI [7]: 63.7 µM
TGI [8]: 20.9 µM
TGI [9]: > 100 µM
TGI [10]: 55 µM
TGI [11]: 15.5 µM

CC1(C)OC(=S)N(c2ccccc2)C12C=Cc1ccccc1O2 (centres undefined)
TGI [1]: > 100 µM
TGI [2]: > 100 µM
TGI [3]: > 100 µM
TGI [4]: > 100 µM
TGI [5]: > 100 µM
TGI [6]: > 100 µM
TGI [7]: > 100 µM
TGI [8]: > 100 µM
TGI [9]: 82.4 µM
TGI [10]: > 100 µM
TGI [11]: > 100 µM

CCOC(=O)c1sc2nc(SC)nc3c2c1NCN3c1ccc2c(c1)OCO2
TGI [1]: 32.9 µM
TGI [2]: > 100 µM
TGI [3]: 18.7 µM
TGI [4]: > 100 µM
TGI [5]: > 100 µM
TGI [6]: 43 µM
TGI [7]: 26.4 µM
TGI [8]: 53.3 µM
TGI [9]: > 100 µM
TGI [10]: 23.1 µM
TGI [11]: > 100 µM

— PubChem BioAssay (NCI)
